Columns and labels:
human plasma-proteins = settings: human plasma-protein binding
NFKB activity = settings: PANC-1 reporter cells; in words
[1] = human, microsomes, 40 min
[2] = tested on: immune cells present in the tumour microenvironment
in vivo = settings: male, CD1, mouse
MC38 cells [3] = tested on: MC38 cells
RAF1 = RAF1 (Homo sapiens (Human), UniProt P04049, Y340D/Y341D); assay type: biochemical; settings: read-out: Residual activity (%) at 1 μM
PANC-1 cells = assay: real-time live cell microscopy of TNF-induced cell death (YOYO-1); assay type: cell-based; settings: real-time live cell assay
MC38 cells [4] = assay: cells; settings: Mus musculus, MC-38, 72 h, read-out: MC38 IC50 (nM at 100 ng/mL TNF)
murine plasma-proteins = settings: murine plasma protein binding
[5] = tested on: cell-panel representing haematological cancers; assay: haematological cancer cell-panel growth inhibition (Oncolead); assay type: cell-based
[6] = maximal tolerable dose (MTD) study in female C57Bl/6 mice
MDR1 = assay: in vitro; settings: dog, MDCK-MDR1
hERG potassium channel = hERG potassium channel (Homo sapiens (Human), UniProt Q12809); settings: 3 uM; from NDA 21-986 review; cited from earlier work
in vitro = settings: dog, MDCK
PDGFR-beta = PDGFR-beta (Homo sapiens (Human), UniProt P09619); assay: biochemical; settings: read-out: Residual activity (%) at 1 μM
BMPR1A = BMPR1A (Homo sapiens (Human), UniProt P36894); assay: biochemical; settings: read-out: Residual activity (%) at 1 μM
WEE1 = WEE1 (Homo sapiens (Human), UniProt P30291); assay: biochemical; settings: read-out: Residual activity (%) at 1 μM
RET [7] = biological target: T1, RET (Homo sapiens (Human), UniProt P07949)
RET [8] = biological target: T1, RET; assay: biochemical; settings: read-out: Residual activity (%) at 1 μM, RET
MST4 = MST4 (Homo sapiens (Human), UniProt Q9P289); assay: biochemical; settings: read-out: Residual activity (%) at 1 μM
[9] = twice daily treatment, intra-tumoural

T1 sequence (P07949 29-1114 limits assumed): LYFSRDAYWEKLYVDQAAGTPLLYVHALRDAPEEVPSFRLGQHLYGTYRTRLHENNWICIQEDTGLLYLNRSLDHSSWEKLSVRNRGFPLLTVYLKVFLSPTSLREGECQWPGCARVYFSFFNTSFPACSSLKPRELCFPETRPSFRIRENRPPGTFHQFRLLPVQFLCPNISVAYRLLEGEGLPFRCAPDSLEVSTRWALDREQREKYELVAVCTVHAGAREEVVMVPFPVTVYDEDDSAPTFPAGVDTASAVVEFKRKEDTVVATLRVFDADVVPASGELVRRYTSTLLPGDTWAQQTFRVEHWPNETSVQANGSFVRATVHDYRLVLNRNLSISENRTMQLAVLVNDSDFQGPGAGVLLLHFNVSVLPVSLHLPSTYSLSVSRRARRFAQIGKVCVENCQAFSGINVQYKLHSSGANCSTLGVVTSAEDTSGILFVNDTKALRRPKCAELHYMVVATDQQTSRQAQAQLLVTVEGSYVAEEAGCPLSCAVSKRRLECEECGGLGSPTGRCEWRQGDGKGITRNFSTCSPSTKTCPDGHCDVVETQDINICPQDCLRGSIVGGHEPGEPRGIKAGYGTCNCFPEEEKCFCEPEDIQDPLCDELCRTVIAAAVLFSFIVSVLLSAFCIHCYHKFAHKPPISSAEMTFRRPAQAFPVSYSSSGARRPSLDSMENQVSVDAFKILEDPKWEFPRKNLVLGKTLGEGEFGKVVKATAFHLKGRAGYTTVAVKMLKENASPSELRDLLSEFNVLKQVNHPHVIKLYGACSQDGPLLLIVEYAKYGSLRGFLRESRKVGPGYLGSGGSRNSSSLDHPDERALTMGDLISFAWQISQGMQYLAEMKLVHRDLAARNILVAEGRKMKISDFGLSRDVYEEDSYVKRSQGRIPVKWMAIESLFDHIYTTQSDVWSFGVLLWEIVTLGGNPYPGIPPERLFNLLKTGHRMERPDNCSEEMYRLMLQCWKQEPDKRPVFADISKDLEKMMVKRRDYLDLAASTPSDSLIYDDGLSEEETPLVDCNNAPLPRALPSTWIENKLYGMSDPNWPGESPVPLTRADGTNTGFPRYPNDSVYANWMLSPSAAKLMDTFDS
Chain of BMPR1A (P36894 24-532 limits assumed): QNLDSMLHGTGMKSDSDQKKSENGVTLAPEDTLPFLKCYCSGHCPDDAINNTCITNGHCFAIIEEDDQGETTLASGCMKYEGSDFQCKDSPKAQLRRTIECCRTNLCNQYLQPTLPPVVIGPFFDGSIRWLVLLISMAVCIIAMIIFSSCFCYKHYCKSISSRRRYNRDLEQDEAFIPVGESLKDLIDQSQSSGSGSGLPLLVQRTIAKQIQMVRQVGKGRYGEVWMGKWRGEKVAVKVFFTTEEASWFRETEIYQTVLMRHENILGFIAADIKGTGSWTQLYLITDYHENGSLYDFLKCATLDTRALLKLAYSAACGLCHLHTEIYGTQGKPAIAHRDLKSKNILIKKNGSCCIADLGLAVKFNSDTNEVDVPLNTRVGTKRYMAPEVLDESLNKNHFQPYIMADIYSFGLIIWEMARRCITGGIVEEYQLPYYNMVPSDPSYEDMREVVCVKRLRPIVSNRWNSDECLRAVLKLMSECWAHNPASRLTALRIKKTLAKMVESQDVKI
Chain of PDGFR-beta (P09619 33-1106 limits assumed): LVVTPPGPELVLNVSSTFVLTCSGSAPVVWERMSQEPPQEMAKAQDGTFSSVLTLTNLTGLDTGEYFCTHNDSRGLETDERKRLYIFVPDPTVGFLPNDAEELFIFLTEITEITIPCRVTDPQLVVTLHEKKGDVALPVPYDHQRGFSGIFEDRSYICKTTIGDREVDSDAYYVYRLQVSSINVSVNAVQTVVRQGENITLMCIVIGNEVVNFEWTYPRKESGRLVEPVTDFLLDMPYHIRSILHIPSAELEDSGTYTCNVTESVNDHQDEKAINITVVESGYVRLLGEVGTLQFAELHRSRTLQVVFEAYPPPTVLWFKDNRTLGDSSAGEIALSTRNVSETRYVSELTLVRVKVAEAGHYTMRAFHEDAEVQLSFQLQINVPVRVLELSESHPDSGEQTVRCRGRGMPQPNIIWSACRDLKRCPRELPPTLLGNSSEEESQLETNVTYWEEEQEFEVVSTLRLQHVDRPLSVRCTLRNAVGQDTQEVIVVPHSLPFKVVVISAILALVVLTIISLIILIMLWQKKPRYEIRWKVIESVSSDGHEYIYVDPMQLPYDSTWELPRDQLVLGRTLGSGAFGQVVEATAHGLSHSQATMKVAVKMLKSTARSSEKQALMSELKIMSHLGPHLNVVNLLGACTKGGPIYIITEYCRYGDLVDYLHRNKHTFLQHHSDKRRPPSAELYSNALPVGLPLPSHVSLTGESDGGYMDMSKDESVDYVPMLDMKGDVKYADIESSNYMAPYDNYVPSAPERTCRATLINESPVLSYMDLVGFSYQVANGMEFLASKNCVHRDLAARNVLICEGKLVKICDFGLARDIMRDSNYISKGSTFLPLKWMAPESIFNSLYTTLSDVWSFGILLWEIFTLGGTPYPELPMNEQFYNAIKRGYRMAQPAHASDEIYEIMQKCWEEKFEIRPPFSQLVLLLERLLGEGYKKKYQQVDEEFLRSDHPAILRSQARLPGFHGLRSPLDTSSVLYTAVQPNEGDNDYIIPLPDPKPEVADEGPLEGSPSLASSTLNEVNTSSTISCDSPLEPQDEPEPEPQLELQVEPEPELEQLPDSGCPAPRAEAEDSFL
Chain of RAF1 (P04049 307-648 Y340D/Y341D limits assumed): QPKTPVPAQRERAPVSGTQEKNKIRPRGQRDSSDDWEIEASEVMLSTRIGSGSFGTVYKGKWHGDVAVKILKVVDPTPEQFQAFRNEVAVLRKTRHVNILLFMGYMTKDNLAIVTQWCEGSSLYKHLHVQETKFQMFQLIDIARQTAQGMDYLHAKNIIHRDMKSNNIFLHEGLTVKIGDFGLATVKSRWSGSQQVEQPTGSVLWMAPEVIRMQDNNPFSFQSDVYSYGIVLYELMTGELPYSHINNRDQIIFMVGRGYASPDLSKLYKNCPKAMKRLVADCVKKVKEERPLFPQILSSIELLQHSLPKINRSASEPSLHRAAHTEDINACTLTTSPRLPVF

For `Cc1nc(Nc2ncc(C(=O)Nc3c(C)csc3Cl)s2)cc(N2CCN(CCO)CC2)n1` [Compound C7, N-(2-chloro-4-methylthiophen-3-yl)-2-((6-(4-(2-hydroxyethyl)piperazin-1-yl)-2-methylpyrimidin-4-yl)amino)thiazole-5-carboxamide], the “Percentage unbound (%)” value (human plasma-proteins) was less than 1%, the “phosphorylation of HDAC4” value (HDAC4 phosphorylation) was “inhibit the phosphorylation of HDAC4” and the “TNF-induced activity of NFkB” value (NFKB activity) was “inhibit TNF-induced activity of NFkB in a dose-dependent manner”. The “% Remaining at 40 min (%)” value [1] was 1%, the “immunosuppressive M2 macrophages (CD206+MHC-II+)” value ([2]; mouse, in vivo) was “significantly reduced” and the “activation of cytotoxic T lymphocytes, CD25+CD69+” value [2, 9] was “increased activation”. The “activation of cytotoxic T lymphocytes, granzyme B expression” value [2, 9] was “increased activation”, the MRT inf (in vivo; in vivo, iv, 1 mg/kg) was 1 h and the MRT last (in vivo; in vivo, iv, 1 mg/kg) was 0.7 h. The “sensitisation to the cytotoxic effect of TNF” value (MC38 cells [3]) was “sensitised to the cytotoxic effect of TNF”, the remaining activity at 1 µM (RAF1) was 4 to 5% and the “sensitisation to the effect of rHuTNF” value (PANC-1 cells) was “sensitise PANC-1 cells to the effect of rHuTNF”. The IC50 (MC38 cells [4]) was less than 100 nM, the “Percentage unbound (%)” value (murine plasma-proteins) was 5% and the GI50 activity ([5]; on about 5 cell lines of the panel) was “sub-nanomolar”. For the same compound, the GI50 ([5]; read-out: GI50 activity) was less than 10 nM, the signs of intolerance ([6]; 33 and 100 mg/kg QD or BID, 7 consecutive days) was “did not show any signs of intolerance” and the body weight ([6]; all dosing groups vs non-treated control animals) was “minor reduction in body weight”. The tolerable dose ([6]; gavage, female C57BL/6 animals, seven days) was “up to 100 mg/kg BID”.
In the case of `Cc1nc(Nc2ncc(C(=O)Nc3c(C)cccc3Cl)s2)cc(N2CCN(CCO)CC2)n1` [Compound A8, N-(2-chloro-6-methylphenyl)-2-((6-(4-(2-hydroxyethyl)piperazin-1-yl)-2-methylpyrimidin-4-yl)amino)thiazole-5-carboxamide, reference compound], the Papp (MDR1) is given as 105 ×10⁻⁶ cm/s, the “inhibition of hERG currents” value (hERG potassium channel) is given as “about 6%” and the Papp (in vitro) is given as 49 ×10⁻⁶ cm/s. It also gave a Cmax (in vivo; plasma, iv, 1 mg/kg) of 1280 nM, an MRT inf (in vivo; plasma, iv, 1 mg/kg) of 1.6 h and an MRT last (in vivo; plasma, iv, 1 mg/kg) of 1.3 h. The Tmax (in vivo; plasma, iv, 1 mg/kg) was 0.08 h, the Vd (in vivo; plasma, iv, 1 mg/kg) was 3.1 L/kg and the clearance (in vivo; plasma, iv, 1 mg/kg) was 32 mL/min/kg. It also gave a Cmax (in vivo; plasma, po, 30 mg/kg) of 1130 nM, a Tmax (in vivo; plasma, po, 30 mg/kg) of 2 h and a bioavailability (in vivo; plasma, po, 30 mg/kg) of 21%. The remaining activity at 1 µM (PDGFR-beta) was 2%, the remaining activity at 1 µM (BMPR1A) was 42% and the remaining activity at 1 µM (WEE1) was 61%. The “Residual activity (%) at 1 μM” value (RET [7]) was 39%, the remaining activity at 1 µM (RET [8]) was less than 40% and the remaining activity at 1 µM (MST4) was 79%.
